From the NIST ThermoML archive (doi:10.1021/je201354k)
Numbers after ± are expanded uncertainties.

Columns and labels:
[1] = Molar enthalpy of transition or fusion; conditions: Crystal; DSC
[2] = Crystal; DTA

Molar enthalpy of transition or fusion [1]: 18.5 ± 0.57 kJ/mol | Triple point temperature [2]: 556.15 ± 0.5 K
Structure (SMILES): N[C@@H](Cc1ccccc1)C(=O)O [L-phenylalanine]
